Reference: US20030129193A1 (priority 2001, published 2003)

Columns and labels:
[1] = test system: 2F2B mouse endothelial cells; assay: Binding of tTF to endothelial cells (FACS, cell bound coagulation assay); format: cell-based
Description: Cells were washed and coagulation factor mix (as described above) was added. S2765 substrate was added and Factor Xa generation was measured as described above.
Fluorescent cells were detected on a flow cytometer (Becton Dickinson, San Jose, Calif.).

3LL mouse lung carcinoma = assay: In vivo tumor thrombosis, 3LL; parameters: species or system C57BL/6 mice; details: large (>800 mm^3) 3LL tumors
Excerpt: Tumor test systems were of four types: i) 3LL mouse lung carcinoma growing subcutaneously in C57BL/6 mice; ii) C1300 mouse neuroblastoma growing subcutaneously in BALB/c nu/nu mice; iii) HT29 human colorectal carcinoma growing subcutaneously in BALB/c nu/nu mice; and iv) C1300 Muγ mouse neuroblastoma growing subcutaneously in BALB/c nu/nu mice. The C1300 Muγ tumor is an interferon-γ secreting transfectant derived from the C 1300 tumor (Watanabe et al., 1989).
To establish tumors, 10^6 to 1.5×10^7 tumor cells were injected subcutaneously into the right anterior flank of the mice. When tumors had grown to various sizes, mice were randomly assigned to different study groups. […] Fab′, or bispecific antibody. Other mice received equivalent quantities IgG, Fab′ or bispecific antibody alone. The injections were performed slowly into one of the tail veins over approximately 45 seconds, usually followed by 200 μl of saline.
Twenty-four hours after being injected with tTF or immunoglobulin-tTF conjugates, the mice were anesthetized with metophane and were exsanguinated by perfusion with heparinized saline. Tumors and normal tissues were excised and immediately fixed in 3% (v/v) formalin. Paraffin sections were cut and stained with hematoxylin and eosin. Blood vessels having open lumens containing erythrocytes and blood vessels containing thrombi were counted. […]

[2] = test system: L540 human Hodgkin's tumors; assay: Anti-VCAM-1•tTF coaguligand, L540; format: in vivo, SCID mice
Description: Mice bearing subcutaneous L540 tumors were injected intravenously with anti-VCAM-1 antibody and, two hours later, the mice were exsanguinated. The tumor and normal organs were removed and frozen sections were prepared and examined immunohistochemically to determine the location of the antibody. […] No localization of anti-VCAM-1 antibody was found in testis or any normal organ except heart and lung.
Before coaguligand injection, tumors were viable, having a uniform morphology lacking regions of necrosis. […] Within four hours of coaguligand injection, 40-70% of blood vessels were thrombosed, despite the initial staining of only 20-30% of tumor blood vessels. The thrombosed vessels contained occlusive platelet aggregates, packed erythrocytes and fibrin. In several regions, the blood vessels had ruptured, spilling erythrocytes into the tumor interstitium.
The drug was administered i.v. 3 times at intervals of 4 days.

bEnd 3 cells = assay: Cell bound coagulation assay, stimulated endothelial cells; format: cell-based, mouse; details: for Factor Xa generation: mix with 0.5 μg/ml factor VIIa; for Factor Xa generation due to Factor VIIa production: mix with 2 μg/ml factor VII and 0.01 μg/ml factor VIIa, factor VII background subtracted
Description: To assay the coagulation induction of stimulated versus unstimulated endothelial cells, bEnd 3 cells were seeded in 48 well tissue culture plates at a density of 1×10^4 cells per well and allowed to adhere overnight. Cells were stimulated with endotoxin (0.5 μg/ml and 10 μg/ml) or TNFα (500 U/ml) for 4 h at 37° C. […] After incubation for 45 min at room temperature, cells were washed and incubated with various coagulation factor mixes as follows: (1) 0.5 μg/ml factor VIIa in a mix containing 2.8 μg/ml factor IX, 3.4 μg/ml factor X, 50 μM phospholipids, in calcium buffer (as specified above); (2) 0.01 μg/ml factor VIIa in a mix as in (1); (3) 2 μg/ml factor VII (Calbiochem-Novabiochem, San Diego, Calif.) in a mix as in (1); (4) 2 […] factor VII, 0.01 μg/ml factor VIIa in a mix as in (1). The supernatant of wells was transferred into a 96 well ELISA plate. Substrate S2765 was added and Factor Xa generation measured alongside different concentrations of Factor Xa standard (7 nkatS2222; 0.7 nkatS2222; 0.07 nkatS2222). OD405nm values were calculated as nkatS2222 Factor Xa from the Factor Xa standard curve.
bEnd 3 cells were seeded in 48 well tissue culture plates at a density of 1×10^4 cells per well and allowed to adhere overnight. Cells were stimulated with endotoxin (0.5 μg/ml and 10 μg/ml) or TNFα (500 U/ml) for 4 h at 37° C. […] After incubation for 45 min at room temperature, cells were washed and incubated with coagulation factor mix as follows: 0.5 μg/ml factor VIIa in a mix containing 2.8 μg/ml factor IX, 3.4 μg/ml factor X, 50 μM phospholipids, in calcium buffer; supernatant of wells was transferred into a 96 well ELISA plate. Substrate S2765 was added and Factor Xa generation measured alongside different concentrations of Factor Xa standard (7 nkatS2222; 0,7 nkatS2222; 0,07 nkatS2222). OD405nm values were calculated as nkatS2222 Factor Xa from the Factor Xa standard curve.

[3] = test system: citrated mouse or human plasma; assay: In vitro coagulation assay on A20 cells; format: cell-based
immobilized tTF = molecular target: T1, immobilized tTF (Homo sapiens, UniProt P13726); assay: Real time binding study (surface plasmon resonance); details: alone or preincubated with endotoxin or factor VIIa
T1 construct: the extracellular domain of the mature Tissue Factor protein (amino acid 1-219 of the mature protein; inferred from Ni-NTA purification); made in house; host or cells: E. coli (periplasmic secretion, vector pswc7)

F9 sarcoma = assay: Sarcoma mouse model, tumor necrosis; format: in vivo, balb/c nude mice; details: endotoxin-free tTF, 4 μg
Description: 1×10^7 F9 sarcoma cells were injected subcutaneously into the right flank of balb/c nude mice. Subcutanous tumors were measured with a caliper in three perpendicular directions a, b, and c, and volumes calculated according to the formula V=π/6×a×b×c. Treatment was initiated when subcutaneous tumors reached a size of 150 to 300 μl.
Reagents were administered into the lateral tail vein.
Mice were closely observed after treatment for clinical signs of toxicity and clinical status was documented at defined time points. Three days after treatment, mice were sacrificed and tumors were harvested. Paraffin embedded tissues were stained with hematoxilin and eosin (H&E). Tissue sections were analyzed on a light microscope by two independent investigators and histological findings were documented. Tumor sections with necrotic areas were scanned with a GS-700 imaging densitometer (Biorad, Hercules, Calif.) and areas of necrosis were calculated as % of total section area.

T1 sequence (P13726 33-251): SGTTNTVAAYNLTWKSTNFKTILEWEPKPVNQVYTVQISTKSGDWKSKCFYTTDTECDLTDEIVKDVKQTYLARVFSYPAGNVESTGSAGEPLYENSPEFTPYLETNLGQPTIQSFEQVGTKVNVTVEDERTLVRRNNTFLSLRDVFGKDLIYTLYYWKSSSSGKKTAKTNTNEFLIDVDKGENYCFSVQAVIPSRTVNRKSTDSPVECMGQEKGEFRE

“tTF: extracellular domain of the mature Tissue Factor protein (amino acid 1-219)” was tested, and the “binding to endothelial cells expressing tissue factor” value [1] was “no binding of tTF to endothelial cells”, the “tumor vessels thrombosed, average” value (3LL mouse lung carcinoma) was 62% and the “effect on tumor growth” value ([2]; 0.3-0.4 cm^3 tumors, i.v. 3 times at intervals of 4 days) was “did not affect tumor growth”. The “control reagents that caused thrombosis of tumor vessels” value ([2]; equivalent quantities) was “None”, the “Factor Xa generation” value (bEnd 3 cells; stimulation with 0.5 μg/ml LPS) was 2.00 nkats2222 and the “Factor Xa generation due to Factor VIIa production” value (“Factor Xa generation due” for short) (bEnd 3 cells; stimulation with 0.5 μg/ml LPS) was 3.00 nkats2222. For the same substance, the “Factor Xa generation” value (bEnd 3 cells; stimulation with 10 μg/ml LPS) was 2.91 nkats2222, the “Factor Xa generation” value (bEnd 3 cells; stimulation with Medium) was 0.40 nkats2222 and the “Factor Xa generation due” value (bEnd 3 cells; stimulation with Medium) was 0.70 nkats2222. The “Factor Xa generation” value (bEnd 3 cells; stimulation with TNFα (500 U/ml)) was 0.67 nkats2222, the “Factor Xa generation due” value (bEnd 3 cells; stimulation with TNFα) was 1.91 nkats2222 and the plasma coagulation time ([3]; 10^−10 M tTF219, absence of Factor VIIa) was 60 s. It also gave a plasma coagulation time ([3]; 10^−10 M tTF219, presence of 13.5 nM Factor VIIa) of 20 s, a coagulation time ([3]; 20,000 molecules per cell) of 140 s and a coagulation time ([3]; 300,000 molecules of tTF per cell) of 40 s. The “concentration at which plasma coagulated in 50 seconds” value ([3]; localized on A20 cells via B21-2/10H10) was 3 nM, the “increase in coagulation-inducing potency” value ([3]; presence of 0.1 nM Factor VIIa) was 2-5 fold and the “time until fibrin strands visible after addition of plasma” value ([3]; tTF bound to A20 cells by B21-2/10H10, mouse plasma) was 36 s. The “binding to immobilized tTF” value (immobilized tTF) was “did not bind to or homodimerize with immobilized tTF” and the “average tumor tissue necrosis” value (F9 sarcoma) was 45%.
